Source: patent publication US7173026B2, “Pyrrolo [2,1-c][1,4]benzodiazepine-anthraquinone conjugates useful as antitumour agents” (Council of Scientific and Industrial Research, priority 2004, dated 2007)

Legend:
Assay type in all cases: cell-based
Details in all cases: 48 hours
[1] = tested on: HOP-62; assay: In vitro cytotoxicity against human cancer cell lines (sulforhodamine B), HOP-62
Procedure: (§1) In vitro cytotoxicity against human cancer cell lines: The human cancer cell lines procured from National Cancer Institute, Frederick, U.S.A or National Center for Cell Science; Pune, India. were used in present study. Cells were grown in tissue culture flasks in complete growth medium (RPMI-1640 medium with 2 mM glutamine, 100 μg/ml streptomycin, pH 7.4, sterilized by filtration and supplemented with 10% fetal calf serum and 100 units/ml penicillin before use) at 37° C. in an atmosphere of 5% CO2 and 90% relative humidity in a carbon dioxide incubator. The cells at subconfluent stage were harvested from the flask by treatment with trypsin (0.5% in PBS containing 0.02% EDTA) for determination of cytotoxicity. Cells with viability of more than 98% as determined by trypan blue exclusion were used for assay. Cell suspension of the required cell density were prepared in complete growth medium with gentamycin (50 μg/ml) for determination of cytotoxicity.
(§2) Stock solutions of (2×10–2 M of test material were prepared in DMSO (Dimethyl sulphoxide). The stock solutions were serially diluted with complete growth medium containing 50 μg/ml of gentamycin to obtain working test solutions of required concentrations.
(§3) In vitro cytotoxicity against human cancer cell lines was determined (Monks, A , Scudiero, D., Skehan, P., Shoemaker R., Paull, K., Vistica, D., Hose, C., Langley, j., Cronise, P., Vaigro-Wolff, A., Gray-Goodrich, M., Campbell, H., Mayo, J and Boyd m.J. Natl. Cancer Inst., 1991, 83, 757–766) using 96-well tissue culture plates. 100 μl of cell suspension was added to each well of the 96-well tissue culture plate. The cells were incubated for 24 hours. Test materials in complete growth medium (100 μl) were added after 24 hours incubation to the wells containing cell suspension. The plates were further incubated for 48 hours (at 37° C. in an atmosphere of […] 90% relative humidity in a carbon dioxide incubator) after addition of test material and then the cell growth was stopped by gently layering trichloroacetic acid (TCA, 50 μl, 50%) on top of the medium in all the wells. The plates were incubated at 4° C. for one hour to fix the cells attached to the bottom of the wells. The liquid of all the wells was gently pipetted out and discarded. […] Cell growth was measured by staining with sulforhodamine B dye (Skehan et al., 1990). […] The optical density was recorded on ELISA reader at 540 nm.
(§4) The cell growth was calculated by subtracting mean OD value of respective blank from the mean OD value of experimental set. Percent growth in presence of test material was calculated considering the growth in absence of any test material as 100% and in turn percent growth inhibition in presence of test material will be calculated.

[2] = tested on: A-549; assay: In vitro cytotoxicity against human cancer cell lines (sulforhodamine B), A-549
Procedure: as §1, §2
(§5) In vitro cytotoxicity against human cancer cell lines was determined (Monks, A , Scudiero, D., Skehan, P., Shoemaker R., Paull, K., Vistica, D., Hose, C., Langley, j., Cronise, P., Vaigro-Wolff, A., Gray-Goodrich, M., Campbell, H., Mayo, J and Boyd m.J. Natl. Cancer Inst., 1991, 83, 757–766) using 96-well tissue culture plates. 100 μl of cell suspension was added to each well of the 96-well tissue culture plate. The cells were incubated for 24 hours. Test materials in complete growth medium (100 μl) were added after 24 hours incubation to the wells containing cell suspension. The plates were further incubated for 48 hours (at 37° C. in an atmosphere of […] 90% relative humidity in a carbon dioxide incubator) after addition of test material and then the cell growth was stopped by gently layering trichloroacetic acid (TCA, 50 μl, 50%) on top of the medium in all the wells. The plates were incubated at 4° C. for one hour to fix the cells attached to the bottom of the wells. The liquid of all the wells was gently pipetted out and discarded. The plates were washed five times with distilled water to remove TCA, growth medium low molecular weight metabolites, serum proteins etc and air-dried. Cell growth was measured by staining with sulforhodamine B dye (Skehan et al., 1990). The adsorbed dye was dissolved in Tris-Buffer (100 m l, 0.01M, pH 10.4) and plates were gently stirred for 5 minutes on a mechanical stirrer. The optical density was recorded on ELISA reader at 540 nm.
as §4

[3] = tested on: HCT-15; assay: In vitro cytotoxicity against human cancer cell lines (sulforhodamine B), HCT-15
Procedure: as §1, §2, §3, §4

[4] = tested on: SiHa; assay: In vitro cytotoxicity against human cancer cell lines (sulforhodamine B), SiHa
Procedure: as §1, §2, §5, §4

[5] = tested on: HT-29; assay: In vitro cytotoxicity against human cancer cell lines (sulforhodamine B), HT-29
Procedure: as §1, §2, §5, §4

[6] = HOP-62, concentration 10-5 mol/L
[7] = HOP-62, concentration 10-6 mol/L
[8] = A-549, concentration 10-4 mol/L
[9] = A-549, concentration 10-5 mol/L
[10] = A-549, concentration 10-6 mol/L
[11] = HCT-15, concentration 10-5 mol/L
[12] = HCT-15, concentration 10-6 mol/L
[13] = HT-29, concentration 10-4 mol/L
[14] = HT-29, concentration 10-5 mol/L
[15] = HT-29, concentration 10-6 mol/L

| Structure (SMILES) | percentage growth inhibition [1, 6] | percentage growth inhibition [1, 7] | percentage growth inhibition [2, 8] | percentage growth inhibition [2, 9] | percentage growth inhibition [2, 10] | percentage growth inhibition [3, 11] | percentage growth inhibition [3, 12] | percentage growth inhibition ([4]; concentration 10-4 mol/L) | percentage growth inhibition ([4]; concentration 10-5 mol/L) | percentage growth inhibition ([4]; concentration 10-6 mol/L) | percentage growth inhibition [5, 13] | percentage growth inhibition [5, 14] | percentage growth inhibition [5, 15] |
| --- | --- | --- | --- | --- | --- | --- | --- | --- | --- | --- | --- | --- | --- |
| COc1cc2c(cc1OCCCC(=O)Nc1cccc3c1C(=O)c1ccccc1C3=O)N=C[C@@H]1CCCN1C2=O [compound Va, 7-Methoxy-8-[N-(9,10-dihydro-9,10-dioxo-1-anthracenyl)-propane-3-carboxamide]-oxy-(11aS)-1,2,3,11a tetrahydro-5H-pyrrolo[2,1-c][1,4]benzodiazepin-5-one] | 90% | 74% | 93% | 27% | 47% | 66% | 59% | 57% | 52% | 41% | 93% | 86% | 68% |
| COc1cc2c(cc1OCCCCC(=O)Nc1cccc3c1C(=O)c1ccccc1C3=O)N=C[C@@H]1CCCN1C2=O [compound Vc, 7-Methoxy-8-[N-(9,10-dihydro-9,10-dioxo-1-anthracenyl)-butane-4-carboxamide]-oxy-(11aS)-1,2,3,11a tetrahydro-5H-pyrrolo [2,1-c][1,4]benzodiazepin-5-one] | 97% | 73% | 93% | 10% | 56% | 82% | 61% | 73% | 49% | 40% | 93% | 87% | 73% |
